Two compounds from patent US4782076A, “Substituted 2,3,4,9-tetrahydro-1H-carbazole-1-acetic acid derivatives, composition and use” (American Home Products Corporation, priority 1988, dated 1988) can be followed below.

Test [1] has as its system Freund's complete adjuvant-induced hind paw edema in rats. In words: Preventive adjuvant edema in rats (Preventative Adjuvant Edema). Type of test: in vivo, Male Sprague Dawley rats. To be noted: 25 mg/kg, p.o., day 0, 1 and 2; edema measured day 3. The method, then:
This test is a primary screen for anti-inflammatory drugs.
Male Sprague Dawley rats (180-200 g) are used. The animals have free access to water but food is withdrawn 18 hours before testing.
Drug Preparations and Administration:
Freund's complete adjuvant is prepared by suspending 5 mg killed and dried Mycobacterium butyricum (Difco) in 1 mL liquid paraffin. The test compounds are dissolved in distilled water or suspended in 0.5% Tween 80 in distilled water according to their solubility. For primary screening all drugs are administered by gastric lavage at the arbitrary dosage of 25 mg/kg, p.o. in a volume of 0.5 mL/100 g body weight to groups of 10 animals.
The method is essentially that described by Wax et al, J. Pharmacol. Exp. Ther., 192, 166-171 (1975). Groups of rats are injected intradermally in the left hind paw with 0.1 mL of Freund's complete adjuvant. […] The injected hind paw volume is measured before the injection of adjuvant and 24 hours after the last drug administration (day 3) by means of a plethysmometer (Buxco Electronics Inc.). […]
The mean edema volume (expressed in mL±SEM) is calculated for each group and the percentage inhibition of inflammation conferred by the drug is calculated: [formula] where c is the mean edema volume for the untreated controls and t is the means edema volume for the drug treated group.

Test [2] has as its system reaction of rats to painful stimulation applied to an inflamed paw. Description: Paw pressure test in the rat. It counts as in vivo, Male Sprague Dawley rats. As to conditions: po, 24 hours after Freund's adjuvant, pain threshold 1 hour later, dose which causes analgesia in 50% of the animals. From the text: A still further test used to determine the utility of the compounds of the present invention is designated: PAW PRESSURE TEST IN THE RAT
The objective of this test is to assess the potency of peripheral and central acting drugs in inhibiting the reaction of rats to painful stimulation applied to an inflamed paw.
Male Sprague Dawley rats (180-200 g) are used. The animals are fasted overnight prior to drug administration.
(§1) Drug Preparation and Administration:
Freund's Complete Adjuvant (FCA) is prepared by suspending 5 mg killed and dried Mycobacterium butyricum (Difco) in 1 mL liquid paraffin. The test compounds are dissolved or susended in 0.5% Tween 80 in distilled water according to their solubility. They are administered by gastric gavage in a volume of 0.5 mL/100 g body weight to groups of 10 animals.
Ten rats are used per group. The method is essentially that described by Randall et al, Arch. Int. Pharmacodyn. […] The force is continuously monitored by a pointer moving along a linear scale and is measured in grams. […] The pain threshold is determined 1 hour later in the inflamed paw and the normal paw of the treated and control groups. […]
Each animal which has a reading 1.5 times greater than the mean reading of the control-group will be considered as responsive to treatment. The number of animals showing an analgesic effect is then determined in each group. […]

The test system of test [3] is phenylbenzoquinone-induced writhing in mice. In words: Phenylbenzoquinone-induced writhing in mice (Phenylquinone Writhing in Mice). Type of test: in vivo, Male Swiss albino mice. To be noted: 60 min before PBQ i.p. The method, then:
A further test used to determine the utility of the compounds of the present invention is designated: DRUG EFFECTS ON PHENYLBENZOQUINONE-INDUCED WRITHING IN MICE
The objective of this test is to determine the ability of test drugs to inhibit the nociceptive (pain) response of mice injected with a chemical irritant. This test is a primary screen for both peripheral and centrally acting analgesic drugs.
Male Swiss albino mice (15-25 g) are used. The animals are fasted for 18 hours prior to use but have free access to water.
as §1
Drugs are dissolved or suspended according to their solubility in 0.5% Tween 80 in distilled water. They are administered by gastric lavage in a volume of 5 mL/kg. […]
A modification of the method of Siegmund et al, Proc. Soc. […] The number of writhing or abdominal squirming movements made by each mouse during the following 15 minute period is counted. The experiment is repeated with another group of 5 mice and the mean number of writhes per mouse for a group of 10 mice is calculated.
Drug treated and vehicle-treated control groups are compared and the percentage inhibition of writhing conferred by the drug is calculated: [formula] where c=mean number of writhes in the control group, and where t=mean number of writhes in the test drug group.

One may read the % Inhibition as the relative decrease from the control value, in per cent. By ED50 is commonly meant the dose that gives a 50% effect, or the effect in half of the subjects. For `C#CCC1CCC(CC)(CC(=O)O)c2[nH]c3c(CC)cccc3c21` (single isomer, unassigned; isomer a) [Example 1, 1,8-Diethyl-2,3,4,9-tetrahydro-4-(2-propynyl)-1H-carbazole-1-acetic Acid Isomer A], in test [1], the “% Inhibition” value came out at 51%. In addition, the ED50 in test [2] worked out at 0.38 mg/kg; in test [3] (Mus musculus, po), 6.6 mg/kg.
Turning to `C#CCC1CCC(CC)(CC(=O)O)c2[nH]c3c(CC)cccc3c21` (single isomer, unassigned; isomer b) [Example 2, 1,8-Diethyl-2,3,4,9-tetrahydro-4-(2-propynyl)-1H-carbazole-1-acetic Acid Isomer B], the “% Inhibition” value in test [1] amounted to 36%; in test [3] (25 mg/kg, p.o.) it was 8%.
